# Results as given in US8791102B2, “Acetanilide sphingosine-1-phosphate receptor antagonists” (Exelixis, Inc., priority 2008, dated 2014).
# Target: T1, human S1P1 receptors (Homo sapiens, UniProt P21453)
# T1 construct: host or cells: HEK293
# Assay: S1P1R antagonist assay (fluorescent membrane potential dye, cAMP readout)
# Assay type: cell-based
# Conditions: HEK293 cells expressing human S1P1 receptors and CNG channel; 500 nM NECA; S1P1R agonist 10 nM; 90 minutes; read-out: EC50 or IC50 value
# T1 sequence (P21453 whole entry): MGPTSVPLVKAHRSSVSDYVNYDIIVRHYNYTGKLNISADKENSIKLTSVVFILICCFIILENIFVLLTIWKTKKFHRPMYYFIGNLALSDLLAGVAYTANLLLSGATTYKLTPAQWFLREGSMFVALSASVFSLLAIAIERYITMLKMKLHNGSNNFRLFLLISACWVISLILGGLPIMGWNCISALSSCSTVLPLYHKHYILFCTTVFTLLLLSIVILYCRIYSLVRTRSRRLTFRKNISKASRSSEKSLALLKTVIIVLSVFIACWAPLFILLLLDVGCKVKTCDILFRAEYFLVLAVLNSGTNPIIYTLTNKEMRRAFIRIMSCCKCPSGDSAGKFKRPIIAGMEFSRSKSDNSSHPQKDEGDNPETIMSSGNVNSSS
row,IC50 [nM],Structure (SMILES)
1,> 1000,"C#CCCC(=O)NC(COCc1ccccc1)C(=O)Nc1ccc(Oc2ccccc2)cc1 (stereo not shown) [Compound 344, N-(2-oxo-1-{[(phenylmethyl)oxy]methyl}-2-{[4-(phenyloxy)phenyl]amino}ethyl)pent-4-ynamide]"
2,> 1000,"CCCOc1ccc(C(=O)NC(COCc2ccccc2)C(=O)Nc2ccc(Oc3ccccc3)cc2)cc1 (stereo not shown) [Compound 345, N-(2-oxo-1-{[(phenylmethyl)oxy]methyl}-2-{[4-(phenyloxy)phenyl]amino}ethyl)-4-(propyloxy)benzamide]"
3,300 to 1000,"CCCCC(C)C(=O)NC(COCc1ccccc1)C(=O)Nc1ccc(Oc2ccccc2)cc1 (stereo not shown) [Compound 346, 2-methyl-N-(2-oxo-1-{[(phenylmethyl)oxy]methyl}-2-{[4-(phenyloxy)phenyl]amino}ethyl)hexanamide]"
4,> 1000,"CC(=O)CCC(=O)NC(COCc1ccccc1)C(=O)Nc1ccc(Oc2ccccc2)cc1 (stereo not shown) [Compound 347, 4-oxo-N-(2-oxo-1-{[(phenylmethyl)oxy]methyl}-2-{[4-(phenyloxy)phenyl]amino}ethyl)pentanamide]"
5,300 to 1000,"COc1ccc(CCC(=O)NC(COCc2ccccc2)C(=O)Nc2ccc(Oc3ccccc3)cc2)cc1OC (stereo not shown) [Compound 348, N-(2-oxo-1-{[(phenylmethyl)oxy]methyl}-2-{[4-(phenyloxy)phenyl]amino}ethyl)-3-(3,4-dimethoxyphenyl)propanamide]"
6,300 to 1000,"O=C(CCC(=O)c1ccccc1)NC(COCc1ccccc1)C(=O)Nc1ccc(Oc2ccccc2)cc1 (stereo not shown) [Compound 349, 4-oxo-N-(2-oxo-1-{[(phenylmethyl)oxy]methyl}-2-{[4-(phenyloxy)phenyl]amino}ethyl)-4-phenylbutanamide]"
7,> 1000,"O=C(NC(COCc1ccccc1)C(=O)Nc1ccc(Oc2ccccc2)cc1)c1cnc2ccccc2c1 (stereo not shown) [Compound 350, N-(2-oxo-1-{[(phenylmethyl)oxy]methyl}-2-{[4-(phenyloxy)phenyl]amino}ethyl)quinoline-3-carboxamide]"
8,> 1000,"O=C(NC(COCc1ccccc1)C(=O)Nc1ccc(Oc2ccccc2)cc1)c1cnccn1 (stereo not shown) [Compound 351, N-(2-oxo-1-{[(phenylmethyl)oxy]methyl}-2-{[4-(phenyloxy)phenyl]amino}ethyl)pyrazine-2-carboxamide]"
9,> 1000,"COc1ccc2[nH]c(C)c(CC(=O)NC(COCc3ccccc3)C(=O)Nc3ccc(Oc4ccccc4)cc3)c2c1 (stereo not shown) [Compound 352, N-(2-oxo-1-{[(phenylmethyl)oxy]methyl}-2-{[4-(phenyloxy)phenyl]amino}ethyl)-2-(5-methoxy-2-methyl-1H-indol-3-yl)acetamide]"
10,> 1000,"COC(C(=O)NC(COCc1ccccc1)C(=O)Nc1ccc(Oc2ccccc2)cc1)c1ccccc1 (stereo not shown) [Compound 353, N-(2-oxo-1-{[(phenylmethyl)oxy]methyl}-2-{[4-(phenyloxy)phenyl]amino}ethyl)-2-methoxy-2-phenylacetamide]"
11,300 to 1000,"C[C@@H](C(=O)NC(COCc1ccccc1)C(=O)Nc1ccc(Oc2ccccc2)cc1)c1ccccc1 (stereo partly drawn) [Compound 354, N-(2-oxo-1-{[(phenylmethyl)oxy]methyl}-2-{[4-(phenyloxy)phenyl]amino}ethyl)-2R-phenylpropanamide]"
12,300 to 1000,"O=C(NC(COCc1ccccc1)C(=O)Nc1ccc(Oc2ccccc2)cc1)c1cn[nH]c1 (stereo not shown) [Compound 355, N-(2-oxo-1-{[(phenylmethyl)oxy]methyl}-2-{[4-(phenyloxy)phenyl]amino}ethyl)-1H-pyrazole-4-carboxamide]"
13,300 to 1000,"O=C(NC(COCc1ccccc1)C(=O)Nc1ccc(Oc2ccccc2)cc1)c1cnnc2ccccc12 (stereo not shown) [Compound 356, N-(2-oxo-1-{[(phenylmethyl)oxy]methyl}-2-{[4-(phenyloxy)phenyl]amino}ethyl)cinnoline-4-carboxamide]"
14,300 to 1000,"O=C(NC(COCc1ccccc1)C(=O)Nc1ccc(Oc2ccccc2)cc1)c1cccc2cccnc12 (stereo not shown) [Compound 357, N-(2-oxo-1-{[(phenylmethyl)oxy]methyl}-2-{[4-(phenyloxy)phenyl]amino}ethyl)quinoline-8-carboxamide]"
15,> 1000,"O=C(NC(COCc1ccccc1)C(=O)Nc1ccc(Oc2ccccc2)cc1)c1cccc(O)n1 (stereo not shown) [Compound 358, 6-hydroxy-N-(2-oxo-1-{[(phenylmethyl)oxy]methyl}-2-{[4-(phenyloxy)phenyl]amino}ethyl)pyridine-2-carboxamide]"
16,> 1000,"CC(C(=O)NC(COCc1ccccc1)C(=O)Nc1ccc(Oc2ccccc2)cc1)c1ccccc1 (stereo not shown) [Compound 359, N-(2-oxo-1-{[(phenylmethyl)oxy]methyl}-2-{[4-(phenyloxy)phenyl]amino}ethyl)-2-phenylpropanamide]"
17,> 1000,"COc1ccc(C2(C(=O)NC(COCc3ccccc3)C(=O)Nc3ccc(Oc4ccccc4)cc3)CC2)cc1 (stereo not shown) [Compound 360, N-(2-oxo-1-{[(phenylmethyl)oxy]methyl}-2-{[4-(phenyloxy)phenyl]amino}ethyl)-1-(4-methoxyphenyl)cyclopropanecarboxamide]"
18,> 1000,"O=C(Cc1c(F)ccc(F)c1F)NC(COCc1ccccc1)C(=O)Nc1ccc(Oc2ccccc2)cc1 (stereo not shown) [Compound 361, N-(2-oxo-1-{[(phenylmethyl)oxy]methyl}-2-{[4-(phenyloxy)phenyl]amino}ethyl)-2-(2,3,6-trifluorophenyl)acetamide]"
19,300 to 1000,"O=C(NC(COCc1ccccc1)C(=O)Nc1ccc(Oc2ccccc2)cc1)c1ccc(C(F)(F)F)cc1C(F)(F)F (stereo not shown) [Compound 362, N-(2-oxo-1-{[(phenylmethyl)oxy]methyl}-2-{[4-(phenyloxy)phenyl]amino}ethyl)-2,4-bis(trifluoromethyl)benzamide]"
20,> 1000,"O=C(Cc1ccc(F)cc1F)NC(COCc1ccccc1)C(=O)Nc1ccc(Oc2ccccc2)cc1 (stereo not shown) [Compound 363, N-(2-oxo-1-{[(phenylmethyl)oxy]methyl}-2-{[4-(phenyloxy)phenyl]amino}ethyl)-2-(2,4-difluorophenyl)acetamide]"
21,> 1000,"Cn1cc(CC(=O)NC(COCc2ccccc2)C(=O)Nc2ccc(Oc3ccccc3)cc2)c2ccccc21 (stereo not shown) [Compound 364, N-(2-oxo-1-{[(phenylmethyl)oxy]methyl}-2-{[4-(phenyloxy)phenyl]amino}ethyl)-2-(1-methyl-1H-indol-3-yl)acetamide]"
22,> 1000,"O=C(NC(COCc1ccccc1)C(=O)Nc1ccc(Oc2ccccc2)cc1)c1ccnc2ccccc12 (stereo not shown) [Compound 365, N-(2-oxo-1-{[(phenylmethyl)oxy]methyl}-2-{[4-(phenyloxy)phenyl]amino}ethyl)quinoline-4-carboxamide]"
23,> 1000,"O=C(NC(COCc1ccccc1)C(=O)Nc1ccc(Oc2ccccc2)cc1)c1cc2ccccc2o1 (stereo not shown) [Compound 366, N-(2-oxo-1-{[(phenylmethyl)oxy]methyl}-2-{[4-(phenyloxy)phenyl]amino}ethyl)-1-benzofuran-2-carboxamide]"
24,> 1000,"COc1cccc2cc(C(=O)NC(COCc3ccccc3)C(=O)Nc3ccc(Oc4ccccc4)cc3)oc12 (stereo not shown) [Compound 367, 7-(methyloxy)-N-(2-oxo-1-{[(phenylmethyl)oxy]methyl}-2-{[4-(phenyloxy)phenyl]amino}ethyl)-1-benzofuran-2-carboxamide]"
25,> 1000,"O=C(COc1ccc(F)cc1)NC(COCc1ccccc1)C(=O)Nc1ccc(Oc2ccccc2)cc1 (stereo not shown) [Compound 368, N-(2-oxo-1-{[(phenylmethyl)oxy]methyl}-2-{[4-(phenyloxy)phenyl]amino}ethyl)-2-(4-fluorophenoxy)acetamide]"
